Results taken from paper PMC4682813, “The Aminosteroid Derivative RM-133 Shows In Vitro and In Vivo Antitumor Activity in Human Ovarian and Pancreatic Cancers” (PLoS ONE, 2015).

Experiments:
[1] = system: PANC-1 tumors xenografted in nu/nu nude mice; experiment: PANC-1 xenografts in nude mice; type: in vivo; conditions: aqueous 0.4% methylcellulose:EtOH (92:8), 240 mg/kg s.c. twice a day every other day
Source text: (§1) All in vivo experiments were approved by our Institutional Animal Care and Use Committee (Comités de protection des animaux de l’Université Laval) and carried out according to the guidelines of the Canadian Council on Animal Care. For xenografts, homozygous ♀ nu/nu nude mice (24–42 days old) were purchased from Charles River Inc. (Saint-Constant, QC, Canada) and housed (four to five) in vinyl micro-isolated ventilated cages, equipped with air lids, which were kept in laminar airflow hoods and maintained under pathogen-limiting conditions. During the acclimatization and study period, the animals were housed under a controlled environment at 22 ± 3°C, with 50 ± 20% relative humidity and light set at 12 h/day (light on at 07:15). Rodent food (Rodent diet #T.2018.15, Harlan Teklad, Madison, WI) and water were provided ad libitum. For nu/nu nude mice, food and water were sterilized prior to dispensing to the animals. Standard Balb/c mice were used for pharmacokinetic studies. Animals were anesthetized with isoflurane and killed by cervical dislocation.
Twenty female nu/nu nude mice (22–24 g) were inoculated with 5×10^6 PANC-1 cells per flank, in 30% matrigel-containing culture medium (0.1 mL). Ten days after inoculation, tumor-bearing mice were randomized in 2 groups of 10 mice each. […] Mice in the second (control) group (n = 18 tumors) received the vehicle only. As with previous xenografts, the tumor area was measured and mouse body weight monitored.

[2] = system: OVCAR-3 tumors xenografted in nu/nu nude mice; experiment: OVCAR-3 xenografts in nude mice, propylene glycol-based vehicle (first part); type: in vivo; conditions: 60 mg/kg s.c. daily, propylene glycol:EtOH (92:8)
Source text: as §1
Twenty-two ♀ nu/nu nude mice (22–24 g) were inoculated s.c. with 5×10^6 OVCAR-3 cells (in 0.1 mL of growth medium containing 30% Matrigel (BD Biosciences, Bedford, MA)) into both flanks in each mouse via a 2.5-cm long 22-gauge needle. After 11 days, tumor-bearing mice were randomly assigned to two groups of 11 mice each according to tumor size, i.e. a control group (n = 12 tumors) and a treated group (n = 15 tumors). RM-133 was administered s.c. daily at 60 mg/kg in 0.1 mL of propylene glycol:EtOH (92:8). Animals in the control group received 0.1 mL of vehicle alone. Tumor size was measured twice weekly using a caliper. Two perpendicular diameters (L and W) were measured, and the tumor area (in mm^2) was calculated using the formula (L/2) x (W/2) x π. Animals were weighed at various intervals during the experiment.

C#C[C@]1(O)CC[C@H]2[C@@H]3CC[C@H]4C[C@H](O)[C@@H](N5CCN(C(=O)[C@@H]6CCCN6C(=O)c6ccc7ccccc7n6)CC5)C[C@]4(C)[C@H]3CC[C@@]21C [RM-133]
apparent toxicity during the experimental period or at necropsy [1]: no apparent toxicity
body weight [1]: not affected
reduction of PANC-1 tumor size progression ([1]; day 22): 75%
reduction of PANC-1 tumor progression ([1]; end of treatment (40 days)): 63%
effect on body weight ([2]; 21-day treatment): no apparent effect on body weight
day from which treated tumors were significantly smaller than control [2]: 15 days
difference in tumor size between treated and control groups (tumor growth inhibition) ([2]; end of treatment (21 days)): 60%
